Test results published in US9707239B2, “Compounds that modulate oxidative stress” (vTv Therapeutics LLC, priority 2011, dated 2017).
“Also recorded” adds a separate entry of the source.

Key:
HMOX1 = experiment: mRNA expression (Quantigene Plex) in NHLF cells: HMOX1; type: cell-based, human; details: mRNA normalized to GAPDH, above DMSO treated cells
Protocol: (§1) Secondary growth of NHLF cells were used for all assays. Cell were thawed and then placed into culture in T225 flasks. The cells were grown to 80% confluency and harvested by washing once with HEPES buffered saline solution and then trypsinizing. Equal numbers (7×10^3 cells per well) of NHLF cells were plated in 96 well tissue culture plates (Corning). Cells were incubated overnight in FGM-2 medium prior to exposure to compound. Cells were treated with either DMSO or a compound as described below for 6 h. Preparation of cell lysates was carried out according to instructions using the Quantigene Reagent system 2.0 protocol (Panomics). mRNA induction was detected from cell lysate using the Quantigene Plex 2.0 Assay Kit (Panomics) on the Luminex platform (BIO-RAD). Expression of GAPDH mRNA was used as the internal control for the Quantigen Plex 2.0 Assay. The data in Tables 5 and 6 represents the fold change of target mRNA expression, normalized to control values, above DMSO treated cells.

TXNRD1 = experiment: mRNA expression (Quantigene Plex) in NHLF cells: TXNRD1; type: cell-based, human; details: mRNA normalized to GAPDH, above DMSO treated cells
Protocol: as §1

NQO1 = experiment: mRNA expression (Quantigene Plex) in NHLF cells: NQO1; type: cell-based, human; details: mRNA normalized to GAPDH, above DMSO treated cells
Protocol: as §1

NHLF cells [1] = experiment: Cytoprotection of cisplatin (CDDP)-treated NHLF cells (propidium iodide staining); type: cell-based; details: NHLF cells, compound 24 hours prior to cisplatin exposure, FIG. 8
Protocol: A key outcome of Bach1 derepression and Nrf2 activation are the induction of cytoprotective genes. A method to test such cytoprotection is to assess the ability of a compound to protect normal human cells such as lung fibroblasts from toxicity due to cisplatin exposure. A model of cellular cytoprotection was established whereby normal human lung fibroblasts were treated with Bach1 modulators and then subsequently exposed to cisplatin. NHLF cells are very sensitive to cisplatin exposure; following a dose of 200 uM cisplatin, >90% of NHLF cells are propidium iodide positive, a measure of cell death.

human Bach1 = experiment: MARE controlled luciferase reporter gene assay in HepG2 cells with or without Bach1 expression; type: cell-based; details: transient transfection, with or without Bach1 expressing plasmid, FIG. 7
Protocol: The ability of Compound 13 to act in a manner similar to CoPP provides evidence for the hypothesis that Bach1 activity is being modulated by the compounds. […] To that end, expression vectors were prepared which contained the HMOX1 mARE promoter element recognized by both Bach1 and Nrf2. This element was placed in control of the reporter gene luciferase. Under conditions of transient transfection of HepG2 cells, the reporter has a low level of basal activity due to the relative ratio of Bach1 and Nrf2 found in the cell. Co-transfection with a Bach1 expressing plasmid leads to repression of luciferase activity. Therefore, one can test whether the compounds can increase the level of luciferase in the cells, thus overcoming Bach1 repression. […] Thus, the tested compound is able to overcome suppression by additional Bach1.

ICAM = experiment: mRNA expression (Quantigene Plex) in NHLF cells: ICAM; type: cell-based, human; details: mRNA normalized to GAPDH, above DMSO treated cells
Protocol: as §1

Keap1 = experiment: HMOX1 induction after Keap1 silencing (shRNA); type: cell-based, human; details: NHLF cells, FIG. 6
Protocol: Normal human lung fibroblasts were plated in a 12-well tissue culture dish at 16,000 cells/well and allowed to attach overnight. Regular medium was then replaced with 200 μl of fresh growth medium containing 8 μg/ml hexadimethrine bromide (polybrene). Lentiviral transduction particles were then added in the following amounts: Control shRNA (1.1×10^7 TU/ml, Sigma, cat# SHC002V), 15 μl for an MOI of 10; KEAP-1 shRNA (6.3×10^6 TU/ml, Sigma, cat# SHCLNV-TRCN0000046092), 63 μl for an MOI of 20. After 4 hours in the cell culture incubator, another 200 μl of growth medium was added on top of the original volume. Cells were replenished the next day with fresh complete growth medium and were allowed to recover for 24 hours, after which selection medium was applied (complete medium with 1 μg/ml puromycin).
Another method of testing the role of the Nrf2 regulatory pathway on compound activity is to determine the effect of silencing Keap1 on HMOX1 gene expression. It is known that deleting Keap1 will result in the induction of Nrf2 dependent genes but not, to any significant degree, HMOX1. The proposed explanation for this observation is that HMOX1 requires the concomitant derepression of Bach1 activity and that this event is more dependent on active processes (e.g., heme binding, changes in redox potential of the cell, phosphorylation of Bach1, etc.). We therefore tested the ability of Compound 13 and tool compounds to induce HMOX1 in the presence of silencing of Keap1 in normal human lung fibroblasts.
Normal human lung fibroblasts were tested with DMSO, CoPP, Compound 13, and two derivatives including Compound 4 and Compound 8. An electrophile, Compound 1, was also included in the test set. […] On the other hand, induction of HMOX1 by the electrophile Compound 1 was inhibited.

GADD45A = experiment: mRNA expression (Quantigene Plex) in NHLF cells: GADD45A; type: cell-based, human; details: mRNA normalized to GAPDH, above DMSO treated cells
Protocol: as §1

HSPA6 = experiment: mRNA expression (Quantigene Plex) in NHLF cells: HSPA6; type: cell-based, human; details: mRNA normalized to GAPDH, above DMSO treated cells
Protocol: as §1

ATF4 = experiment: mRNA expression (Quantigene Plex) in NHLF cells: ATF4; type: cell-based, human; details: Table 5, 6 h, mRNA normalized to GAPDH, above DMSO treated cells
Protocol: as §1

NHLF cells [2] = experiment: ROS measurements (H2DCF-DA imaging); type: cell-based, human; details: 1 hr, cell-by-cell imaging, FIG. 3A/3B
Protocol: Secondary growth of NHLF cells were used for all assays. Cells were cultured as above. Cells were plated into 384-well BD-Optilux Plates at 2,000 cells/well and cultured overnight at 37° C. and 5% CO2. The following day, cell were washed and 2,7-dihydrodichlorofluorescin diacetate (H2DCF-DA), 10 μM ferric ammonium citrate (FAC), and Hoechst stain were added to cells for 30 min. The cells were washed once with PBS to remove any H2DCF-DA not taken up by cells. Test compounds were prepared in FBM-2 media at the desired concentrations. The plates and stain-treated cells were incubated with test compounds for 1 hr at 37° C. and 5% CO2. Following the incubation period, ROS generation was determined by imaging the cells on a GE INcell 1000 imager (Hoechst Ex. 360 Em. 535; H2DCF-DA 488 Ex. 480 Em. 535). ROS levels were determined and quantified using GE IN Cell Analyzer Software.
In addition to gene profiling, the requirement for ROS generation or chemical reactivity was tested. ROS generation was measured using an automated imaging technique. Compound 13 as well as two other compounds that were found in the screening set were tested in this experiment. Untreated NHLF cells, NHLF cells treated with the HMOX1 inducer CoPP (a negative control), and NHLF cells treated with curcumin or celestrol (positive controls) were included as controls. […] Further experiments were also conducted on chemical derivatives of Compound 13. In those experiments, all compounds tested were found not to induce an elevation of ROS levels in the cell (FIG. 3B). Thus, Compound 13 and related compounds represent a class of agents that elevate HMOX1 production without elevating ROS production.

[3] = Compound levels in rat blood after oral gavage (LC-MS); type: in vivo; details: rats
Protocol: (§2) Next, selected Bach1 modulators were tested for in vivo function. […] Rats were dosed with 5 mg/kg of compound by oral gavage. Compound levels in blood were determined by LC-MS (left panel). […] In a second experiment, Compound 8 activity was tested by determining the amount of HMOX1 mRNA induced in rat blood. Animals were dosed by oral gavage and blood drawn at the indicated times.

rat HMOX1 mRNA = experiment: HMOX1 mRNA induction in rat blood after oral gavage; type: in vivo; details: rats, oral gavage 5 or 25 mg/kg, over 5 hours, FIG. 11B
Protocol: as §2

| SMILES | HMOX1 (fold induction) (HMOX1; Table 5, 6 h) | HMOX1 (fold induction) (HMOX1; Table 6, 6 h) | TXNRD1 (fold induction) (TXNRD1; Table 5, 6 h) | TXNRD1 (fold induction) (TXNRD1; Table 6, 6 h) | NQO1 (fold induction) (NQO1; Table 5, 6 h) | NQO1 (fold induction) (NQO1; Table 6, 6 h) | protection against cisplatin toxicity (NHLF cells [1]) | luciferase activity of HMOX1 mARE reporter (human Bach1) | ICAM (fold induction) (ICAM; Table 5, 6 h) | ICAM1 (fold induction) (ICAM; Table 6, 6 h) | HMOX1 induction in the presence of Keap1 silencing (Keap1) | GADD45A (fold induction) (GADD45A; Table 5, 6 h) | GADD45A (fold induction) (GADD45A; Table 6, 6 h) | HSPA6 (fold induction) (HSPA6; Table 5, 6 h) | HSPA6 (fold induction) (HSPA6; Table 6, 6 h) | ATF4 (fold induction) (ATF4) | ROS production (in words) (NHLF cells [2]) | compound levels in blood ([3]; 5 mg/kg (legend: 5 or 25 mg/kg) oral gavage, LC-MS, FIG. 11A) | oral bioavailability ([3]; oral gavage, FIG. 11) | HMOX1 mRNA induced in rat blood (rat HMOX1 mRNA) |
| --- | --- | --- | --- | --- | --- | --- | --- | --- | --- | --- | --- | --- | --- | --- | --- | --- | --- | --- | --- | --- |
| C=Cc1c(C)c2cc3[nH]c(cc4nc(cc5nc(cc1[nH]2)C(C)=C5CCC(=O)[O-])C(CCC(=O)[O-])=C4C)c(C)c3C=C.[Co+2] [CoPP, Cobalt protoporphyrin IX, reference compound] | 48 fold induction | 49.64 fold induction | 2.7 fold induction | 2.39 fold induction | 3.5 fold induction | 4.22 fold induction | protect the cells from CDDP-mediated toxicity | able to induce luciferase activity in the presence or absence of Bach1 protein expression; also recorded: can overcome this repression | 1.1 fold induction | 0.56 fold induction | unaffected in their ability to induce HMOX1 in the presence of Keap1 silencing | 1.02 fold induction | 1.18 fold induction | 0.9 fold induction | 0.86 fold induction | 0.85 fold induction | did not |  |  |  |
| COCCNC(=O)c1ccc2c(c1)nc(Nc1nc3ccc(OC(F)(F)F)cc3s1)n2C [Compound 8, 1-Methyl-2-(6-trifluoromethoxy-benzothiazol-2-ylamino)-1H-benzoimidazole-5-carboxylic acid (2-methoxy-ethyl)-amide] |  |  |  |  |  |  |  |  |  |  | unaffected in their ability to induce HMOX1 in the presence of Keap1 silencing; also recorded: behaves similarly to CoPP induction |  |  |  |  |  |  | micromolar levels; also recorded: present in blood sample following oral dosing | orally bioavailable | able to induce HMOX1 mRNA in rat blood in a time and dose-dependent manner; also recorded: dose-dependent induction of rat HMOX1 mRNA in blood samples |
